# Results reported in US7935823B2 (priority 2007, dated 2011).
# What was measured:
# [1] = test system: ion channels associated with glutamate receptors; experiment: Glutamate-stimulated calcium-ion uptake in rat brain synaptosomes; conditions: P2-fraction of synaptosomes from newborn rat brain; initial screening 5 uM
# Method: Evaluation of the calcium-blocking properties of dimebon was conducted with P2-fraction of synaptosomes, which were isolated from the brain of newborn (8-11 days) rats according to the protocol described in [Bachurin et al. Neuroprotective and cognition enhancing properties of MK-801 flexible analogs. Structure-activity relationships./Ann. N.Y. Acad. Sci., 2001, v. 939, pp. 219-235]. In this test, the ability of the compounds to inhibit a specific uptake of calcium ions via ion channels associated with glutamate receptors was determined.
# Synaptosomes were placed into the incubation buffer A (132 mM NaCl, 5 mM KCl, 5 mM HEPES) and were kept at 0 degrees Celsius (“C”) during the entire experiment. Aliquots of synaptosomes (50µl) were placed in the media A, containing investigated compounds and a preparation of the radiolabeled calcium, ^45Ca. […] A specific calcium uptake was calculated using the following equation K(43/21)=[(Ca4−Ca3)/(Ca2−Ca1)]*100% where: Ca1 is a calcium uptake in a control experiment (no glutamate or test compound added); Ca2 is a calcium uptake in the presence of glutamate only (Glutamate Induced Calcium Uptake—GICU); Ca3 is a calcium uptake in the presence of a test compound only (no glutamate added); Ca4 is a calcium uptake in the presence of both glutamate and a test compound.
# C57/B female mice = experiment: Geroprotector activity in aging mice; assay type: in vivo; conditions: 3 mg/kg per day in drinking water
# Method: Dimebon was evaluated as an agent that prolongs life and improves the quality of life (characterized by changes in the amount of pathologies that accompany ageing) in the laboratory animals.
# Experiments were conducted with C57/B female mice, starting from their age of 12 months. Mice were kept on cells, 10 animals per a cell. Both control and experimental group included 50 animals in each group. […] The day-night cycle was 12 hours.
# Prior to the experiment, daily and weekly water consumption by the animals in one cell was measured. Dimebon was added in water in such amount that each animal would consume 3 mg/kg of Dimebon per day in average. Bottles with water containing Dimebon were replaced every 7 days. Animals in the control group were receiving pure water.
# Prior to the experiment, all the animals were weighed, and an average weight was determined in every group, every cell, as well as the weight of all animals in every cell. The condition of skin, hair, and eyes were also determined by visual inspection. […] Evaluation of all these parameters was conducted on a monthly basis.
# Statistics were calculated using Student T-test and ‘Chi-squared’ criteria.
# acetylcholinesterase = acetylcholinesterase (Homo sapiens, UniProt P22303); conditions: recombinant enzyme and fresh blood samples from three volunteers; read-out: acetylcholinesterase half-maximal inhibitory concentration (IC50); cited from earlier work
# NMDA receptor = conditions: read-out: NMDA receptor inhibition constant (Ki); cited from earlier work
# [2] = human clinical studies; cited from earlier work
# [3] = test system: SK—N—SH human neuroblastoma cells; conditions: ionomycin-treated cells (70 percent without drug); picomolar concentrations; cited from earlier work
# [4] = test system: SK—N—SH human neuroblastoma cells; conditions: ionomycin-treated cells (40 percent without drug); picomolar concentration; cited from earlier work
# [5] = test system: neuroblastoma line (SH—SY5Y); conditions: pre-treatment with one nano-molar; cited from earlier work
# [6] = test system: primary rat cortical neurons; conditions: cultured three days; picomolar concentrations; compared with BDNF at maximally effective concentrations; cited from earlier work
# [7] = test system: patients with mild to moderate AD; conditions: cited from earlier work
# [8] = test system: mitochondrial permeability transition pores; conditions: MPP(+) and beta-amyloid fragment 25-35; cited from earlier work
# Chain of acetylcholinesterase (P22303 32-574 limits assumed): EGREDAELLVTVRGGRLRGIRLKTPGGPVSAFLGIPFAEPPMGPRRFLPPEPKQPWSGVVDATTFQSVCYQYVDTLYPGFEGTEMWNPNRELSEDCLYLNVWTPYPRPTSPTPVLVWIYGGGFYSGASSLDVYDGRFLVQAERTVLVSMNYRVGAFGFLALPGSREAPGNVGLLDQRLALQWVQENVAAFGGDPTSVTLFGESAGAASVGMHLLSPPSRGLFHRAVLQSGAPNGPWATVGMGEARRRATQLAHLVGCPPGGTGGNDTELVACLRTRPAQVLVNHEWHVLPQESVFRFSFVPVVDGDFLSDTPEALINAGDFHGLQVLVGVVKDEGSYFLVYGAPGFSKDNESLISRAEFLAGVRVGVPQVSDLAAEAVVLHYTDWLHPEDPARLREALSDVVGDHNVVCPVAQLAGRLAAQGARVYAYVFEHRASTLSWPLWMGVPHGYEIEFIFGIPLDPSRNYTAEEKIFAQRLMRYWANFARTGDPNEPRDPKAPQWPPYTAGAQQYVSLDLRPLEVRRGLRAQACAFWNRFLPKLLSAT
compound,measurement,setting,value
Cc1ccc2c(c1)c1c(n2CCc2ccc(C)nc2)CCN(C)C1 [dimebon],calcium-blocking properties (specific glutamate-induced 45Ca uptake),[1],pronounced calcium-blocking properties
same,age-related weight depletion,C57/B female mice,No weight depletion was observed
same,development of non-fatal pathologies (loss of vision and alopecia),C57/B female mice,slowing of the development of non-fatal pathologies
same,probability of death,C57/B female mice; from age 12 months,lower in all age groups
same,amount of animals with cataract vs control,C57/B female mice; 13 to 20 months old mice,significantly less
same,IC50,acetylcholinesterase,31 to 72 µM
same,Ki,NMDA receptor,97 µM
same,participants/patients reporting gastrointestinal problems,[2],less than 3%
same,JC-1 red/green ratio relative to control cells,[3],85-90%
same,cell survival (MTT) relative to control cells,[4],75-85%
same,protection of mitochondrial function (TMRM probe),[5],protected cells from ionomycin-induced stress
same,neurite outgrowth,[6],increased neurite outgrowth as well as did BDNF
same,clinical endpoints and tolerability in one-year trial,"[7]; one-year randomized double-blinded placebo-controlled trial, 183 patients","met all five clinical endpoints with strong statistical significance, and was very well tolerated"
same,safety and tolerability,"[7]; six-month open-label extension, exposure to 18 months",no safety or tolerability issues
same,prevention of neurotoxin-induced opening of mitochondrial pores,[8],prevented
